{"source": "patent US8129527B2", "about": "“Analogs of dehydrophenylahistins and their therapeutic use” (Nereus Pharmacuticals, Inc., priority 2006, dated 2012)", "key": {"[1]": {"system": "PC-3 prostatic adenocarcinoma cells", "experiment": "Tumor cytotoxicity assay, resazurin fluorescence, 48 h (Example 6)", "type": "cell-based, human", "details": "read-out: EC50 (nM) PC-3", "experimental": "10× concentrated serial dilutions of the two compounds were prepared in appropriate culture medium for final concentrations ranging from 2.0×10^−5 M to 2.0×10^−10 M. Ten μl volumes of the 10× serial dilutions were added to the test wells in triplicate and the plates returned to the incubator for 48 hours.\nFollowing 48 hours of drug exposure 10 μl of 0.2 mg/ml resazurin (obtained from Sigma-Aldrich Chemical Co.) in Mg^2+, Ca^2+ free PBS was added to each well and the plates were returned to the incubator for 3-4 hours. […] Resazurin dye without cells was used to determine the background, which was subtracted from the data for all experimental wells. The data were analyzed using Prism software (GraphPad Software).\nPC-3, a human prostate adenocarcinoma, was maintained in F12K complete medium (F12K medium supplemented with 10% FBS; 2 mM Glutamine; 1% HEPES; and Pen/Strep at 100 IU/ml and 100 µg/ml, respectively)."}, "HT29 (human colon tumor)": {"system": "HT29 (human colon tumor)", "experiment": "Tumor panel screen cytotoxicity (Example 10A)", "type": "cell-based", "text": "(§1) Cells were maintained at subconfluent densities in their respective culture media."}, "[2]": {"system": "NCI-H292 (human non-small cell lung tumor)", "experiment": "Tumor panel screen cytotoxicity (Example 10A)", "type": "cell-based", "details": "maximum cytotoxic effect", "text": "as §1"}, "[3]": {"system": "MES-SA (Taxol Sensitive) human uterine sarcoma", "experiment": "Drug resistant cell line pair, cytotoxicity (Example 10B)", "type": "cell-based", "details": "Homo sapiens, MES-SA, CsA Pretreat, Studies II-III in separate lines", "text": "(§2) 1) Human Uterine Sarcoma Tumor Cell Line Pair: MES-SA (Taxol Sensitive) and MES-SA/Dx5 (Taxol Resistant)."}, "[4]": {"system": "MES-SA/Dx5 (Taxol Resistant) human uterine sarcoma", "experiment": "Drug resistant cell line pair, cytotoxicity (Example 10B)", "type": "cell-based", "details": "Homo sapiens, MES-SA/Dx5, MES-SA/DX5 Resistant, CsA Pretreat; Studies II-III in separate lines", "text": "as §2"}, "MCF-7 human breast tumor": {"system": "MCF-7 human breast tumor", "experiment": "MCF-7 Human Breast Tumor Xenograft Model", "type": "in vivo, nude mice", "details": "in combination with taxotere", "procedure,_shortened": "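Female nu/nu mice (~20 g, 5–6 wk) given 21-day estrogen pellets (0.25 mg) s.c. 24 h before s.c. MCF-7 tumor fragment implantation; 9–10 mice/group. Compounds dosed i.p. (qdx5 Days 1–5, or Days 1, 2, 3, 4, 7); taxotere i.v. (Days 1, 3, 5 or 1, 3, 7), given 15–30 min before compound in combinations.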"}, "[5]": {"system": "MDA-231 human breast tumor", "experiment": "MDA-231 Human Breast Tumor Orthotopic Xenograft Model (mammary fat pad)", "type": "in vivo, nude mice", "details": "KPU-2 7.5 mg/kg ip q3dx5 with paclitaxel 16 mg/kg ip qdx5, three weeks", "experimental": "(§3) The animals used were: female nude mice (nu/ni) (MDA-231 study) or B6D2F1 (B16-F10 studies) mice between 5 and 6 weeks of age (˜20 g, Harlan); group size was 10 mice per group unless otherwise indicated.\n(§4) The cell lines used were: MDA-MB-231 human breast tumor and B16-F10 murine melanoma cells.\n(§5) NPI compounds were administered as monotherapy via the intraperitoneal route at the doses indicated for the individual study; for the combination studies the selected reference chemotherapy agents were injected 15-30 min prior to the NPI compound.\nFemale nude mice were injected in the mammary fat pad with 2×10^6 MDA-231 cells harvested from in vitro cell culture. When the tumor size reached 5 mm×5 mm (about 14-28 days) the animals were matched into treatment and control groups. The study then proceeded as described for the HT-29 model, using paclitaxel as the standard chemotherapy agent.\nIn this model unless otherwise noted for the individual study, the test compounds were administered via the intraperitoneal route on Days 1, 4, 8, 11 and 15 (q3dx5); paclitaxel was administered via the intraperitoneal route on Days 1-5 (qdx5).\nThis model involves the placement of the human tumor tissue into the mouse mammary fat pad, a surrogate of the natural environment. In this manner the possibility of a positive effect due to a specific action on the subcutaneous vascular bed is avoided."}, "[6]": {"system": "B16-F10 murine melanoma cells", "experiment": "B16-F10 Metastatic Murine Melanoma Model", "type": "in vivo, B6D2F1 mice", "details": "monotherapy, lung surface metastases day 16", "experimental": "as §3, §4, §5\nMice received B16-F10 cells (prepared from an in vitro cell culture of B16-F10 cells) by the iv route on Day 0. On Day 1 mice were randomized into treatment and control groups and treatment commenced. Mice were weighed twice weekly, starting on Day 1. All mice are sacrificed on Day 16, the lungs removed, weighed and the surface colonies counted. Results are expressed as mean colonies of treated mice/mean colonies of control mice (T/C)×100%). The metastasis growth inhibition (MGI) is this number subtracted from 100%. Paclitaxel was the standard chemotherapy agent used in this study.\nIn this model unless otherwise noted for the individual study, the test compounds were administered via the intraperitoneal route on Days 1-5 (qdx5); paclitaxel was administered intravenously on Days 1-5(qdx5)."}, "Aspergillus fumigatus": {"system": "Aspergillus fumigatus", "experiment": "Antifungal susceptibility testing, broth dilution (MIC/MFC)", "type": "cell-based", "procedure,_shortened": "(§6)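 Tested against two isolates per species (one for C. glabrata). After MIC, fungicidal concentration determined by plating 0.1 μl from MIC and each higher concentration.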"}, "Candida albicans": {"system": "Candida albicans", "experiment": "Antifungal susceptibility testing, broth dilution (MIC/MFC)", "type": "cell-based", "procedure,_shortened": "as §6"}, "Candida glabrata": {"system": "Candida glabrata", "experiment": "Antifungal susceptibility testing, broth dilution (MIC/MFC)", "type": "cell-based", "details": "Nakaseomyces glabratus", "procedure,_shortened": "as §6"}, "Trichophyton rubrum": {"system": "Trichophyton rubrum", "experiment": "Antifungal susceptibility testing, broth dilution (MIC/MFC)", "type": "cell-based", "details": "Trichophyton species", "procedure,_shortened": "as §6"}, "JNK3 (rat)": {"molecular_target": "JNK3 (rat) (Rattus norvegicus, UniProt P49187)", "sequence (P49187 whole entry)": "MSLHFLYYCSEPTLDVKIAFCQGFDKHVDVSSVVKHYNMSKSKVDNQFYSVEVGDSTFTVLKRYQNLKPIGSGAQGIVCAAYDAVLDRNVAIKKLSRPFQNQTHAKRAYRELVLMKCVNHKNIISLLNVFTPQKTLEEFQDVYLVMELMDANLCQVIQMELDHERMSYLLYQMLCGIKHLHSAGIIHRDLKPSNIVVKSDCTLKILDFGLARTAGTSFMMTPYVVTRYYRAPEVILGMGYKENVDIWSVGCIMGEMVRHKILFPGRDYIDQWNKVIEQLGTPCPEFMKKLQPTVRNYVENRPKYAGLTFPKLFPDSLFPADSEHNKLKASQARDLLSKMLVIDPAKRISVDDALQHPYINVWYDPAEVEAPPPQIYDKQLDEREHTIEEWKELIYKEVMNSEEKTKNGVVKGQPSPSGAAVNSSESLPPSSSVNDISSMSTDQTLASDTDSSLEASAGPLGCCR", "details": "ATP 10 μM"}, "HuVEC": {"system": "HuVEC", "experiment": "Action on microtubule function, α-tubulin staining", "details": "2 μM, thirty minutes exposure"}}, "note": "Where two headings read alike, the source gives them in different places.", "data": [{"smiles": "CC(C)(C)c1[nH]cnc1/C=c1\\[nH]c(=O)/c(=C/c2ccccc2)[nH]c1=O", "note": "[KPU-2, tBu-dehydro-PLH]", "values": [{"measurement": "EC50", "setting": "[1]; Table 2", "result": 1, "unit": "nM"}, {"measurement": "EC50", "setting": "[1]; Table 3", "result": 1, "unit": "nM"}, {"measurement": "% Cytotoxicity Mean", "setting": "HT29 (human colon tumor); HT-29 Colon, maximum cytotoxic effect", "result": 82.5, "unit": "%"}, {"measurement": "IC50", "setting": "HT29 (human colon tumor); Homo sapiens, HT-29 Colon", "result": 9.8, "unit": "nM"}, {"measurement": "potency on the HT-29 tumor cell line", "setting": "HT29 (human colon tumor); in words", "result": "low nanomolar range"}, {"measurement": "% Cytotoxicity Mean", "setting": "[2]", "result": 70.5, "unit": "%"}, {"measurement": "IC50", "setting": "[3]", "result": 27.4, "unit": "nM"}, {"measurement": "IC50", "setting": "[4]", "result": 37.8, "unit": "nM"}, {"measurement": "effect on estimated tumor growth", "setting": "MCF-7 human breast tumor", "result": "appeared to be the most effective"}, {"measurement": "inhibition of tumor growth", "setting": "[5]", "result": "significant inhibition of tumor growth"}, {"measurement": "MGI (metastasis growth inhibition)", "setting": "[6]", "result": 41.6, "unit": "%"}, {"measurement": "MIC", "setting": "Aspergillus fumigatus; A. fumigatus isolate #2", "result": ">16", "unit": "µg/mL"}, {"measurement": "MIC", "setting": "Aspergillus fumigatus; Aspergillus fumigatus", "result": "> 16", "unit": "µg/mL"}, {"measurement": "MIC", "setting": "Candida albicans; C. albicans 10231", "result": ">32", "unit": "µg/mL"}, {"measurement": "MIC", "setting": "Candida albicans; Candida albicans", "result": "> 32", "unit": "µg/mL"}, {"measurement": "MIC", "setting": "Candida glabrata", "result": "> 32", "unit": "µg/mL"}, {"measurement": "antifungal potency compared with griseofulvin", "setting": "Trichophyton rubrum", "result": "equivalent in potency or in some cases more potent than griseofulvin"}, {"measurement": "IC50", "setting": "JNK3 (rat)", "result": 6800, "unit": "nM"}, {"measurement": "microtubule depolymerization in HuVEC cells", "setting": "HuVEC", "result": "induced microtubule depolymerization"}]}]}
